From patent US20230087609A1, “USE OF A SOLUBLE GUANYLATE CYCLASE (sGC) STIMULATOR OR OF A COMBINATION OF A sGC STIMULATOR AND AN sGC ACTIVATOR FOR CONDITIONS WHEREIN THE HEME GROUP OF sGC IS OXIDIZED OR WHEREIN sGC IS DEFICIENT IN HEME” (Universiteit Maastricht, priority 2020, published 2023) come the findings set out here.

The structures appear in SMILES notation.

The test system of the test is Human Brain Microvascular Endothelial Cells (HBMECs). The test can be described thus: Cell viability (MTT) of HBMEC subjected to hypoxia. The format is cell-based. The conditions noted are these: 1 μM; 6 h hypoxia, 24 h reperfusion; versus non-treated cells (FIG. 9). As to the method:
HBMEC (Cell systems, USA) between passage 3 and 9 were cultured to approximately 95% confluence using specialized cell medium (EGM-2 MV BulletKit, Lonza, The Netherlands) enriched with 5% fetal bovine serum before starting the hypoxia period. For hypoxia studies, HBMECs were seeded at specific density (6×10^4 cells/ml) in 12 wells-plate and incubated during 24 h at 37° C. Then, cell medium was replaced with non-FBS containing medium following by 6 h of hypoxia (94.8% N2, 0.2% O2 and 5% CO2) at 37° C. using hypoxia workstations (Ruskin Invivo2 400 station, The Netherlands). The hypoxia period was followed by 24 h of reperfusion in the presence or absence of 1 μM BAY 41-2272. Control cells were exposed to normoxia (75% N2, 20% O2 and 5% CO2) and enriched medium during the hypoxia period.
After 24 h of re-oxygenation period, cell viability was assessed using the colorimetric MTT assay. MTT solution (5 mg/ml) was added to each well (100 μl/ml) and incubated for 2 h at 37° C. The formazan salt formed was solubilized by adding 350 μl/well DMSO. The optical density was measured spectrophotometrically at 540 nm using a micro plate reader. Absorbance values obtained in control cells were set to 100% viability.

Take `Nc1nc(-c2nn(Cc3ccccc3F)c3ncccc23)ncc1C1CC1` [BAY 41-2272, 5-cyclopropyl-2-[1-(2-fluoro-benzyl)-1H-pyrazolo[3,4-b]pyridin-3-yl]-pyrimidin-4-ylamine]: the cell viability result is on record as “significantly increased cell viability”.
